Holding throughout (test): Test 2 glasshouse assay (IF50 formulation, X-77), post-emergence herbicidal activity
Holding throughout (format): in vivo

For assay [1], the system named is Beta vulgaris (BEAVA, sugarbeet). Particulars: 360 h, 15 DAA, visual score, read-out: Post-emergence herbicidal activity (percentage phytotoxicity) BEAVA; for plant injury at 30 g/ha: application rate 30 g/ha; for plant injury at 125 g/ha: application rate 125 g/ha. Summed up: (§1)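 Plants grown ~12 days (range 10-13) in glasshouse (cool species 20/16° C., warm 24/18° C. day/night; 16 h light; 65% humidity), then sprayed post-emergence with IF50 formulation in aqueous 0.2% v/v X-77. Visual percentage phytotoxicity scored 15 days after application (100% = total damage, 0% = none).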

Assay [2] deals with Brassica napus (BRSNN, rape). The conditions noted are these: 360 h, 15 DAA, visual score, read-out: Post-emergence herbicidal activity (percentage phytotoxicity) BRSNN; for plant injury at 30 g/ha: application rate 30 g/ha; for plant injury at 125 g/ha: application rate 125 g/ha. Put shortly: as §1
Assay [3] deals with Glycine max (GLXMA, soybean). Particulars: 360 h, 15 DAA, visual score, read-out: Post-emergence herbicidal activity (percentage phytotoxicity) GLXMA; for plant injury at 30 g/ha: application rate 30 g/ha; for plant injury at 125 g/ha: application rate 125 g/ha. Put shortly:
as §1

The test system of assay [4] is Triticum aestivum (TRZAW, winter wheat). Particulars: 360 h, 15 DAA, visual score, read-out: Post-emergence herbicidal activity (percentage phytotoxicity) TRZAW; for plant injury at 30 g/ha: application rate 30 g/ha; for plant injury at 125 g/ha: application rate 125 g/ha. Put shortly:
as §1

The subject of assay [5] is Alopecurus myosuroides (ALOMY). The conditions noted are these: 360 h, 15 DAA, visual score, read-out: Post-emergence herbicidal activity (percentage phytotoxicity) ALOMY; for pest or weed control at 30 g/ha: application rate 30 g/ha; for pest or weed control at 125 g/ha: application rate 125 g/ha. Put shortly:
(§2)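 Plants in soil pots were sprayed 1 day (pre-emergence) or ~12 days (post-emergence) after sowing with IF50 formulation diluted in 0.2% v/v X-77. Cool species were grown at 20/16 °C day/night, 16 h light, 65% humidity. Visual % phytotoxicity was scored at 20DAA (pre) or 15DAA (post).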

For another assay, the system named is Avena fatua (AVEFA). Particulars: 360 h, 15 DAA, visual score, read-out: Post-emergence herbicidal activity (percentage phytotoxicity) AVEFA; for pest or weed control at 30 g/ha: application rate 30 g/ha; for pest or weed control at 125 g/ha: application rate 125 g/ha. Put shortly:
as §2

The test system of a further assay is Lolium perenne (LOLPE). The conditions noted are these: 360 h, 15 DAA, visual score, read-out: Post-emergence herbicidal activity (percentage phytotoxicity) LOLPE; for pest or weed control at 30 g/ha: application rate 30 g/ha; for pest or weed control at 125 g/ha: application rate 125 g/ha. Summed up: as §2
In assay [6] the test system is Brachiaria plantaginea (BRAPL). The conditions noted are these: Urochloa plantaginea, 360 h, 15 DAA, visual score, read-out: Post-emergence herbicidal activity (percentage phytotoxicity) BRAPL; for pest or weed control at 30 g/ha: application rate 30 g/ha; for pest or weed control at 125 g/ha: application rate 125 g/ha. Put shortly: (§3)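 Test plants were sown in pots of standard soil and cultivated for one day (pre-emergence) or about 12 days (post-emergence) under controlled glasshouse conditions. An aqueous spray with IF50 and 0.2% v/v X-77 was then applied. Damage was rated visually as percentage phytotoxicity 20 days (pre) or 15 days (post) later.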

For assay [7], the system named is Digitaria sanguinalis (DIGSA). The conditions noted are these: 360 h, 15 DAA, visual score, read-out: Post-emergence herbicidal activity (percentage phytotoxicity) DIGSA; for pest or weed control at 30 g/ha: application rate 30 g/ha; for pest or weed control at 125 g/ha: application rate 125 g/ha. Put shortly:
as §3

For assay [8], the system named is Echinochloa crus-galli (ECHCG). The conditions noted are these: 360 h, 15 DAA, visual score, read-out: Post-emergence herbicidal activity (percentage phytotoxicity) ECHCG; for pest or weed control at 30 g/ha: application rate 30 g/ha; for pest or weed control at 125 g/ha: application rate 125 g/ha. Summed up: as §3
Assay [9] has as its system Panicum miliaceum (PANMI). Particulars: 360 h, 15 DAA, visual score, read-out: Post-emergence herbicidal activity (percentage phytotoxicity) PANMI; for pest or weed control at 30 g/ha: application rate 30 g/ha; for pest or weed control at 125 g/ha: application rate 125 g/ha. Summed up:
as §3

The test system of a further assay is Setaria faberi (SETFA). Particulars: 360 h, 15 DAA, visual score, read-out: Post-emergence herbicidal activity (percentage phytotoxicity) SETFA; for pest or weed control at 30 g/ha: application rate 30 g/ha; for pest or weed control at 125 g/ha: application rate 125 g/ha. Put shortly: as §3
For assay [10], the system named is Sorghum vulgare Pers. (SORVU). The conditions noted are these: Sorghum bicolor, 360 h, 15 DAA, visual score, read-out: Post-emergence herbicidal activity (percentage phytotoxicity) SORVU; for pest or weed control at 30 g/ha: application rate 30 g/ha; for pest or weed control at 125 g/ha: application rate 125 g/ha. Summed up:
as §3

`C#CCC1CC(=O)C(c2c(Cl)cc(-c3ccc(Cl)cc3)cc2OC)C1=O` (stereo not shown) [Compound A11, 2-[2-chloro-4-(4-chlorophenyl)-6-methoxyphenyl]-4-prop-2-ynylcyclopentane-1,3-dione]: the plant injury at 30 g/ha in assay [1] amounted to 20%; in assay [2], 30%; in assay [3], 0%; in assay [4], 60%. The plant injury at 250 g/ha in assay [1] (application rate 250 g/ha) stood at 70%; in assay [2] (application rate 250 g/ha), 70%; in [3] (application rate 250 g/ha) it was 20%; in [4] (application rate 250 g/ha), 90%. For the same molecule, the pest or weed control at 30 g/ha in [5] came to 30%; in the assay with Avena fatua (AVEFA), 20%; in the assay on Lolium perenne (LOLPE) it was 30%; in assay [6], 100%; in [7] it was 100%; in assay [8], 100%. The pest or weed control at 30 g/ha in assay [9] was 100%; in the assay with Setaria faberi (SETFA), 80%; in assay [10], 100%. Further, the pest or weed control at 250 g/ha came out at 70% in assay [5] (application rate 250 g/ha); 70% in the assay on Avena fatua (AVEFA) (application rate 250 g/ha); 40% with Lolium perenne (LOLPE) (application rate 250 g/ha); 100% in assay [6] (application rate 250 g/ha); 100% in [7] (application rate 250 g/ha); 100% in [8] (application rate 250 g/ha). Besides, the pest or weed control at 250 g/ha (in assay [9] (application rate 250 g/ha); in the assay with Setaria faberi (SETFA) (application rate 250 g/ha); in assay [10] (application rate 250 g/ha)) was 100% each time.

As for `C#CCC1CC(=O)C(c2c(Cl)cc(-c3ccc(F)cc3F)cc2OC)C1=O` (stereo not shown) [Compound A12], the plant injury at 30 g/ha in assay [1] stood at 40%; in assay [2] it was 50%; in assay [3], 0%; in [4], 40%. Besides, the plant injury at 125 g/ha came to 40% in assay [1], 60% in [2], 0% in [3] and 80% in [4]. Also, the pest or weed control at 30 g/ha in assay [5] is 60%; in the assay on Avena fatua (AVEFA) it was 10%; in the assay on Lolium perenne (LOLPE) it was 30%; in [6], 70%; in assay [7], 70%; in assay [8], 70%. For the same molecule, the values for the pest or weed control at 30 g/ha (in assay [9]; in the assay on Setaria faberi (SETFA); in [10]) were 70%, 20% and 90%, respectively. Besides, the pest or weed control at 125 g/ha in [5] was found to be 80%; with Avena fatua (AVEFA), 80%; in the assay on Lolium perenne (LOLPE), 90%; in [6] it was 100%; in assay [7] it was 100%; in [8], 100%. Further, the pest or weed control at 125 g/ha (in assay [9]; in the assay with Setaria faberi (SETFA); in [10]) was 100% throughout.

For `C#CCC1CC(=O)C(c2c(Cl)cc(-c3ccc(F)c(F)c3)cc2OC)C1=O` (stereo not shown) [Compound A13], the plant injury at 30 g/ha came out at 60% in assay [1], 70% in assay [2], 20% in assay [3] and 40% in assay [4]. The plant injury at 125 g/ha was determined as 70% in [1], 80% in assay [2], 30% in assay [3] and 80% in assay [4]. In addition, the pest or weed control at 30 g/ha stood at 30% in assay [5]; 30% in the assay with Avena fatua (AVEFA); 10% in the assay with Lolium perenne (LOLPE); 90% in assay [6]; 100% in [7]; 100% in [8]. Further, the pest or weed control at 30 g/ha (in assay [9]; in the assay on Setaria faberi (SETFA); in assay [10]) was 100% in each case. The pest or weed control at 125 g/ha in [5] turned out to be 100%; in the assay with Avena fatua (AVEFA), 80%; with Lolium perenne (LOLPE) it was 80%; in assay [6], 100%; in [7], 100%; in assay [8] it was 100%. Further, the pest or weed control at 125 g/ha (in assay [9]; in the assay on Setaria faberi (SETFA); in assay [10]) was 100% throughout.

For the molecule `C#CCC1CC(=O)C(c2c(F)cc(-c3ccc(Cl)cc3)cc2OC)C1=O` (stereo not shown) [Compound A14], the plant injury at 125 g/ha in assay [1] came out at 10%; in assay [2], 0%; in [3] it was 0%; in [4], 40%. The pest or weed control at 125 g/ha in assay [5] was determined as 60%; in the assay with Avena fatua (AVEFA), 40%; in the assay on Lolium perenne (LOLPE), 20%; in [6] it was 30%; in assay [7], 100%; in [8] it was 100%. For the same molecule, the figures for the pest or weed control at 125 g/ha (in assay [9]; in the assay on Setaria faberi (SETFA); in assay [10]) were 60%, 90% and 100%, respectively.
